Assay results reported in US20260234180A1, “AMINO ACID DERIVATIVE, PREPARATION METHOD THEREFOR, AND PHARMACEUTICAL COMPOSITION FOR TREATING HEPATITIS, COMPRISING SAME” (priority 2021, published 2026).

Legend:
[1] = target: T1, NTCP (Na+ taurocholate cotransporting peptide), HepG2-hNTCP-C4 cell line (Homo sapiens, UniProt Q14973); assay: Inhibition of binding between FITC-labelled PreS1 and NTCP expressing cell line, flow cytometry; details: for relative fluorescence intensity compared to Comparative Example 1 (LCA): 20 nM PreS1, 4° C., 2 hours, lower = more inhibited binding
T1 construct: expressed in transfected cells; host or cells: HepG2-hNTCP-C4 (HepG2 cells expressing human NTCP)
T1 sequence (Q14973 1-349): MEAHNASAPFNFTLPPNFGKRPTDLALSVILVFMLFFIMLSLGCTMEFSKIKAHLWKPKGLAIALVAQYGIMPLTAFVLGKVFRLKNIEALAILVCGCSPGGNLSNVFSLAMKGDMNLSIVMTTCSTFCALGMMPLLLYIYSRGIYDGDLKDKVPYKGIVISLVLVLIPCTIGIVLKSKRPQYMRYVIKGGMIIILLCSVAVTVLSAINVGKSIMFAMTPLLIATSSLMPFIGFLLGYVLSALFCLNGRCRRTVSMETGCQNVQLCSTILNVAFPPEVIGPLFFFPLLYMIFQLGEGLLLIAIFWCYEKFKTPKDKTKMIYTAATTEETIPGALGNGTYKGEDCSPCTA
Protocol: HepG2-hNTCP-C4 cell line, a cell line expressing NTCP, was seeded in a 6 well plate at a density of 2×10^5/well and incubated at 4° C. for 30 minutes when the confluency reached 80% after overnight incubation for 2 days. Thereafter, 20 nM PreS1 (Myr-GTNL […]-Lys(FITC) (SEQ ID NO: 1)) and the compounds in Example 1, Examples 38 to 56 or the compound in Comparative Example 1 were treated by diluting in culture media at 4° C. at a concentration of 50 µM respectively, and the media was suctioned after 2 hours, followed by washing 3 times with 4° C. PBS. In order to take the cells off from the plate, 500 μl of 0.5 mM EDTA PBS solution was treated, and then incubation was performed at 37° C. for 15 minutes to check whether the cells fell off through an optical microscope. After taking off the cells by pipetting, the cells were collected in a 1.5 ml tube and centrifuged (4000 rpm, 4° C., 3 min). After suctioning the supernatant, the pellet was washed 3 times with 4° C. PBS, and then green fluorescence was measured via flow cytometry. In this case, taurocholic acid (TCA), a compound known as a substrate of NTCP to reduce the entry of HBV or HDV, was used as a positive control group.
In the graph at the top of FIG. 1, black (1) and red (2) indicate a negative control group with no treatment and an HBV-induced group (HBV preS1) solely treated with PreS1, respectively. Blue (HBV preS1+HBV entry inhibitor) (3) is the fluorescence value for each of Examples or Comparative Examples, evaluated that the closer to the negative control group, the more inhibited the binding between PreS1 and the NTCP cell line.
The experimental method was the same as in the Experimental Example 1-1, and 20 nM PreS1 and each compound were treated at 4 concentrations (0.2 μM, 2 μM, 10 μM, 50 μM).
With an expectation that there is a structure-activity relationship among compounds composed of bile acid and amino acids, for each of bile acids in Comparative Example 1 (lithocholic acid, LCA), Comparative Example 2 (ursodeoxycholic acid, UDCA), Comparative Example 3 (cholic acid, CA), Comparative Example 4 (hyodeoxycholic acid, HDCA), Comparative Example 5 (deoxycholic acid, DCA), and Comparative Example 6 (chenodeoxycholic acid, CDCA), an evaluation experiment was conducted on an ability to inhibit the binding between PreS1 and NTCP expressing cell lines, and also for Examples 1 (LCA-Ile) and Example 44 (LCA-Val) as well as the compounds in Example 2 (UDCA-Ile), Example 3 (UDCA-Val), Example 6 (CA-Ile), Example 7 (CA-Val), Example 8 (HDCA-Ile), Example 9 (HDCA-Val), Example 10 (DCA-Ile), Example 11 (DCA-Val), Example 14 (CDCA-Ile), and Example 15 (CDCA-Val) in which bile acid parts (lithocholic acid) of Example 1 (LCA-Ile) and Example 44 (LCA-Val) were substituted with other types of bile acids in Comparative Examples 2 to 6, an evaluation experiment was conducted on an ability to inhibit the binding between PreS1 and NTCP expressing cell lines. The experimental method was the same as in the Experimental Example 1-1, and 18 compounds in the Comparative Examples 1 to 6, Examples 1 to 3, Examples 6 to 11, Examples 14 to 15, and Example 44 were treated at a concentration of 50 µM along with 20 nM PreS1.
In FIG. 9, an evaluation experiment was conducted to check a degree of inhibiting the binding between PreS1 and NTCP expressing cell lines for compounds in Examples 4 to 5, Examples 12 to 13, Examples 16 to 17, and Comparative Examples 2 (ursodeoxycholic acid, UDCA), Comparative Examples 5 (deoxycholic acid, DCA), and Comparative Examples 6 (chenodeoxycholic acid, CDCA) according to the present disclosure. The experimental method was the same as the Experimental Example 1-1.
In the Experimental Examples 1-4, it was determined whether there is additionally concentration dependence for Example 4 (UDCA-Trp), a compound with good inhibitory ability. […]

HBV virus = assay: HBV infection of HepG2-NTCP cells, HBeAg ELISA analysis; type: cell-based, hepatitis B virus (HBV); details: 20 μM, O.D. 450 nm
Protocol: Specifically, the HepG2-NTCP cell line was cultured on a 6-well plate, incubation was performed overnight, HBV inhibitors were treated at a concentration of 20 μM, and the positive control Myrcludex-B (MyrB) was treated at a concentration of 200 nM, followed by culture for 24 hours. After HBV infection into the cells to make HBV 3000 genome equivalent per ml/cell (Geq/cell), the cell culture medium was replaced (medium changing, MC) a day after the viral infection to remove the virus unattached to cell membranes. In order to measure an amount of virus that entered the cell, medium changing (MC) was performed once more 4 days after viral infection. 2 days after replacement, HBeAg ELISA analysis was performed using a supernatant, and Southern blot analysis was performed with cell pellets.
HBeAg ELISA analysis was performed using an HBeAg ELISA kit (sanbio, Wantai HBeAg ELISA, cat #WB-2496) for the supernatant obtained by the method in Experimental Example 4-1.
First, a negative control group (Mock), positive control group (MyrB), and samples according to the present disclosure were loaded, by 50 μl each to be triplicate, onto a 96-well plate coated with capture Ab. In this case, Example 1 (LCA-ILE), Example 44 (LCA-Val), Example 52 (LCA-Tyr), Example 51 (LCA-Ser), Example 55 (LCA-Glu), Example 2 (UDCA-Ile), Example 3 (UDCA-Val), Example 25 (LCA-Val-Trp), Example 10 (DCA-Ile), Comparative Example 1 (LCA), and Comparative Example 2 (UDCA) were used as the sample.
The HRP-conjugated detection antibody was loaded into each well by 50 μl, followed by a reaction at 37° C. for 30 minutes. Washing buffer (1×PBS, 0.5% Tween20) was added by 200 μl, and washing was performed 5 times. 50 μl of chromogen solution A and 50 μl of chromogen solution B were added to each well, and a reaction was carried out in the darkness at 37° C. for 15 minutes. The stop solution was added to each well by 50 μl each to stop the reaction, and the amount of HBeAg was measured by measuring the absorbance (optical density, O.D.) level in the 450 nm wavelength band.

SMILES	relative fluorescence intensity compared to Comparative Example 1 (LCA) ([1]; compound 50 µM)	other results
C[C@H](CCC(=O)N[C@@H](CO)C(=O)O)[C@H]1CC[C@H]2[C@@H]3CC[C@@H]4C[C@H](O)CC[C@]4(C)[C@H]3CC[C@]12C [Example 51, (S)-3-hydroxy-2-((R)-4-((3R,5R,8R,9S,10S,13R,14S,17R)-3-hydroxy-10,13-dimethyl-hexadecahydro-1H-cyclopenta[a]phenanthren-17-yl)pentanamido)propanoic acid]	low	HBeAg absorbance level relative to the negative control group (Mock) (HBV virus): relatively lower
C[C@H](CCC(=O)N[C@@H](Cc1ccc(O)cc1)C(=O)O)[C@H]1CC[C@H]2[C@@H]3[C@@H](O)C[C@@H]4C[C@H](O)CC[C@]4(C)[C@H]3CC[C@]12C [Example 5, (S)-2-((R)-4-((3R,5S,7S,8R,9S,10S,13R,14S,17R)-3,7-dihydroxy-10,13-dimethyl-hexadecahydro-1H-cyclopenta[a]phenanthren-17-yl)pentanamido)-3-(4-hydroxyphenyl)propanoic acid]		difference in degree of competitive inhibition versus Comparative Example 2 (UDCA) ([1]; compared to the HBV-induced group (PreS1-FITC) solely treated with PreS1): about 2 times; relative fluorescence intensity in comparison with the parent bile acid Comparative Example ([1]; vs Comparative Example 2 (UDCA), 5 (DCA) or 6 (CDCA), method as Experimental Example 1-1): low
CC[C@@H](C)[C@H](NC(=O)CC[C@@H](C)[C@H]1CC[C@H]2[C@@H]3C[C@H](O)[C@@H]4C[C@H](O)CC[C@]4(C)[C@H]3CC[C@]12C)C(=O)O [Example 8, (2S,3R)-2-((R)-4-((3R,5R,6S,8S,9S,10R,13R,14S,17R)-3,6-dihydroxy-10,13-dimethyl-hexadecahydro-1H-cyclopenta[a]phenanthren-17-yl)pentanamido)-3-methylpentanoic acid]		ability to inhibit the binding between PreS1 and NTCP expressing cell lines (bile acid series) ([1]; compound 50 µM, 20 nM PreS1): relatively excellent
C[C@H](O)[C@H](NC(=O)CC[C@@H](C)[C@H]1CC[C@H]2[C@@H]3CC[C@@H]4C[C@H](O)CC[C@]4(C)[C@H]3CC[C@]12C)C(=O)O [Example 39, (2S,3S)-3-hydroxy-2-((R)-4-((3R,5R,8R,9S,10S,13R,14S,17R)-3-hydroxy-10,13-dimethyl-hexadecahydro-1H-cyclopenta[a]phenanthren-17-yl)pentanamido)butanoic acid]	low and lower	
CSCC[C@H](NC(=O)CC[C@@H](C)[C@H]1CC[C@H]2[C@@H]3CC[C@@H]4C[C@H](O)CC[C@]4(C)[C@H]3CC[C@]12C)C(=O)O [Example 48, (S)-2-((R)-4-((3R,5R,8R,9S,10S,13R,14S,17R)-3-hydroxy-10,13-dimethyl-hexadecahydro-1H-cyclopenta[a]phenanthren-17-yl)pentanamido)-4-(methylthio)butanoic acid]	low and lower	
C[C@H](NC(=O)CC[C@@H](C)[C@H]1CC[C@H]2[C@@H]3CC[C@@H]4C[C@H](O)CC[C@]4(C)[C@H]3CC[C@]12C)C(=O)O [Example 46, (S)-2-((R)-4-((3R,5R,8R,9S,10S,13R,14S,17R)-3-hydroxy-10,13-dimethyl-hexadecahydro-1H-cyclopenta[a]phenanthren-17-yl)pentanamido)-3-propanoic acid]	low	
CC(C)C[C@H](NC(=O)CC[C@@H](C)[C@H]1CC[C@H]2[C@@H]3CC[C@@H]4C[C@H](O)CC[C@]4(C)[C@H]3CC[C@]12C)C(=O)O [Example 47]	low and lower	
C[C@H](CCC(=O)N[C@@H](Cc1c[nH]c2ccccc12)C(=O)O)[C@H]1CC[C@H]2[C@@H]3CC[C@@H]4C[C@H](O)CC[C@]4(C)[C@H]3CC[C@]12C [Example 50, (S)-2-((R)-4-((3R,5R,8R,9S,10S,13R,14S,17R)-3-hydroxy-10,13-dimethyl-hexadecahydro-1H-cyclopenta[a]phenanthren-17-yl)pentanamido)-3-(1H-indol-3-yl)propanoic acid]	low and lower	effect of inhibiting the binding between PreS1 and NTCP expressing cell lines by treatment concentration ([1]; 0.2 μM, 2 μM, 10 μM, 50 μM, 20 nM PreS1): concentration dependent
